In ChEMBL document CHEMBL1201862, “PubChem BioAssay data set” (2004):
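Values below derive from 48-hour exposures of cells grown in 96-well plates, with endpoints linearly interpolated between the two concentrations bracketing the appropriate inhibition level. Abbreviation: GI50, concentration required for 50% inhibition of growth.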 The source made the active and inactive calls. Rule as the data show it: active = GI50 up to about 1.1 µM and inactive = higher.

Assays:
Experiment in all cases: inhibition of tumour cell growth, NCI panel, 48 h
A498 = tested on: A498
BT-549 = tested on: BT-549
Hs-578T = tested on: Hs-578T
MCF7 = tested on: MCF7
MDA-MB-231 = tested on: MDA-MB-231
ACHN = tested on: ACHN
DMS-114 = tested on: DMS-114
LXFL 529 = tested on: LXFL 529

Measured: GI50

O=c1ccn(COC(COCc2ccccc2)COCc2ccccc2)c(=O)[nH]1
inactive: A498 > 100 µM | BT-549 > 100 µM | Hs-578T > 100 µM | MCF7 > 100 µM | MDA-MB-231 55.3 µM

O=C(O)C1CCCCN1c1ccccc1[N+](=O)[O-] (stereo unspecified)
inactive: ACHN > 100 µM | DMS-114 > 100 µM | LXFL 529 > 100 µM

O=C(/C=N/c1ccccc1S)c1ccco1
inactive: DMS-114 15.3 µM

CCOC(=O)NC(Nc1ncccn1)(C(=O)OCC)C(F)(F)F (stereo unspecified)
inactive: ACHN > 100 µM | BT-549 > 100 µM | Hs-578T > 100 µM | MCF7 > 100 µM | MDA-MB-231 > 100 µM

CCC(C(=O)O)c1ccc(OC)cc1 (stereo unspecified)
inactive: A498 > 100 µM | ACHN > 100 µM | DMS-114 > 100 µM | LXFL 529 > 100 µM

O=C=C=P(c1ccccc1)(c1ccccc1)c1ccccc1
inactive: ACHN > 100 µM | DMS-114 22.8 µM | LXFL 529 35 µM

O=c1[nH]c(-c2ccc(Cl)cc2)cc2ccsc12
inactive: ACHN 6.03 µM | BT-549 4.82 µM | MCF7 5.05 µM

COC(=O)C1C(C)N1C (stereo unspecified)
inactive: DMS-114 > 100 µM | LXFL 529 > 100 µM
